Assay results taken from the NIST ThermoML archive (doi:10.1016/j.jct.2014.10.015).
Numbers after ± are expanded uncertainties.

Test: mn = molality of the nth substance listed, in mol/kg
Conditions: 101.3 kPa, Liquid, Vibrating tube method

Nc1cc[nH]c(=O)n1 [4-amino-2-hydroxypyrimidine] + O
mass density [kg/m3]
Conditions	288.15 K	298.15 K	308.15 K	318.15 K
m1 = 0.00616	999.374 ± 0.088	997.282 ± 0.089	994.295 ± 0.09	990.472 ± 0.092
m1 = 0.01095	999.56 ± 0.088	997.461 ± 0.089	994.473 ± 0.09	990.648 ± 0.092
m1 = 0.01278	–	997.529 ± 0.089	–	–
m1 = 0.01633	999.767 ± 0.088	997.66 ± 0.088	994.67 ± 0.09	990.845 ± 0.091
m1 = 0.01855	–	997.743 ± 0.089	–	–
m1 = 0.01892	–	997.756 ± 0.089	–	–
m1 = 0.01961	999.894 ± 0.088	997.779 ± 0.089	994.791 ± 0.09	990.964 ± 0.091
m1 = 0.02682	1000.17 ± 0.088	998.042 ± 0.089	995.052 ± 0.09	991.228 ± 0.091
m1 = 0.02766	–	998.073 ± 0.089	–	–
m1 = 0.02813	–	998.09 ± 0.089	–	–
m1 = 0.03302	1000.4 ± 0.088	998.264 ± 0.088	995.271 ± 0.09	991.452 ± 0.091
m1 = 0.0353	–	998.345 ± 0.088	–	–

O=c1cc[nH]c(=O)[nH]1 [2,4(1H,3H)-pyrimidinedione] + O
mass density [kg/m3]
Conditions	288.15 K	298.15 K	308.15 K	318.15 K
m1 = 0.00553	999.354 ± 0.088	997.267 ± 0.089	994.275 ± 0.09	990.452 ± 0.092
m1 = 0.00878	–	997.396 ± 0.089	–	–
m1 = 0.01162	999.599 ± 0.088	997.507 ± 0.09	994.508 ± 0.09	990.68 ± 0.092
m1 = 0.01202	–	997.522 ± 0.09	–	–
m1 = 0.01509	999.736 ± 0.088	997.643 ± 0.088	994.639 ± 0.09	990.808 ± 0.091
m1 = 0.01724	–	997.727 ± 0.089	–	–
m1 = 0.01985	999.924 ± 0.087	997.828 ± 0.088	994.818 ± 0.09	990.984 ± 0.091
m1 = 0.02348	–	997.97 ± 0.089	–	–
m1 = 0.02387	–	997.985 ± 0.089	–	–
m1 = 0.02487	–	998.023 ± 0.088	–	–
m1 = 0.02578	1000.15 ± 0.088	998.059 ± 0.089	995.038 ± 0.09	991.203 ± 0.091
m1 = 0.03026	1000.33 ± 0.088	998.232 ± 0.088	995.205 ± 0.09	991.367 ± 0.091

Cc1c[nH]c(=O)[nH]c1=O [thymine] + O
mass density [kg/m3]
Conditions	m1 = 0.00771	m1 = 0.01299	m1 = 0.01771	m1 = 0.02319	m1 = 0.02665	m1 = 0.03315
288.15 K	999.423 ± 0.088	999.622 ± 0.088	999.797 ± 0.088	1000 ± 0.087	1000.13 ± 0.088	1000.37 ± 0.088
298.15 K	997.334 ± 0.089	997.53 ± 0.089	997.704 ± 0.088	997.906 ± 0.088	998.033 ± 0.088	998.27 ± 0.088
308.15 K	994.344 ± 0.09	994.535 ± 0.09	994.705 ± 0.09	994.901 ± 0.09	995.023 ± 0.09	995.252 ± 0.09
318.15 K	990.518 ± 0.092	990.703 ± 0.092	990.867 ± 0.091	991.055 ± 0.091	991.172 ± 0.091	991.393 ± 0.091

Cc1cn([C@H]2CC(O)[C@@H](CO)O2)c(=O)[nH]c1=O (stereo partly drawn) [thymidine] + O
mass density [kg/m3]
Conditions	m1 = 0.00963	m1 = 0.01114	m1 = 0.01478	m1 = 0.02291	m1 = 0.02594	m1 = 0.0288
288.15 K	999.851 ± 0.18	999.964 ± 0.18	1000.24 ± 0.18	1000.84 ± 0.18	1001.06 ± 0.18	1001.27 ± 0.18
298.15 K	997.759 ± 0.18	997.871 ± 0.18	998.139 ± 0.18	998.733 ± 0.18	998.954 ± 0.18	999.162 ± 0.18
308.15 K	994.768 ± 0.18	994.878 ± 0.18	995.142 ± 0.18	995.73 ± 0.18	995.947 ± 0.18	996.152 ± 0.18
318.15 K	990.937 ± 0.18	991.046 ± 0.18	991.306 ± 0.18	991.881 ± 0.18	992.094 ± 0.18	992.294 ± 0.18

Cl.N=C(N)N [guanidine hydrochloride] + O
mass density [kg/m3]
Conditions	m1 = 0.1	m1 = 0.25	m1 = 0.5	m1 = 0.75	m1 = 1
288.15 K	1001.93 ± 0.089	1006.02 ± 0.091	1012.56 ± 0.095	1018.77 ± 0.099	1024.63 ± 0.1
298.15 K	999.788 ± 0.088	1003.75 ± 0.09	1010.1 ± 0.094	1016.1 ± 0.097	1021.79 ± 0.1
308.15 K	996.735 ± 0.089	1000.63 ± 0.088	1006.86 ± 0.092	1012.74 ± 0.095	1018.36 ± 0.099
318.15 K	992.885 ± 0.091	996.736 ± 0.089	1002.87 ± 0.089	1008.68 ± 0.093	1014.2 ± 0.096
